Data: US8703419B2, “Method for diagnosis/prognosis of cancers using an epigenetic marker consisting of a specific single CpG site in TTP promoter and treatment of cancers by regulating its epigenetic status” (Korea Research Institute of Bioscience and Biotechnology, priority 2009, dated 2014)

Assays:
Type in all cases: cell-based, human
[1] = system: phospho-SMAD2/3 binding to TRR; experiment: ChIP analysis of phosphorylated SMAD2/3 binding to TRR; details: both SK-Hep1 and PLC/PRF/5 cell lines
Procedure: (§1) ChIP analysis was performed using a specific assay kit (Millipore, USA) according to manufacturer's specifications. SK-Hep1 and PLC/PRF/5 cells were pre-treated or not treated with AzadC for 72 hours, to which TGFβ1 was additionally treated or not treated. The cells were treated with formaldehyde, leading to the binding of DNA to the protein (DNA conjugated protein), followed by cell lysis. After DNA fractionation, the antibody to RNAPII protein shown in Table 7 was added thereto, followed by reaction at 4° C. for overnight. The antibody was isolated by adding 50 μl of Protein A/G PLUS-Agarose. At this time, the DNA specifically bound to the antibody was purified. The purified DNA proceeded to PCR using the primer sets of Table 8.
The present inventors performed ChIP analysis using the antibodies shown in Table 9 in the same manner as described in Example <6-1> in order to investigate the bindings of phosphorylated SMAD2/3, transcription inhibitor, methyl DNA binding protein, and DNMT (DNA methyltransferase), which are important factors involved in TGFβ1 signal transduction, in TRR (a). At this time, input was a part of cell extract obtained after fixing the cells in formaldehyde and DNA fractionation, which is the status right before immunoprecipitation with antibody.

[2] = system: acetylation of histones H3 and H4 at TRR; experiment: ChIP analysis of histone H3 and H4 acetylation at TRR; details: PLC/PRF/5 cells; regardless of AzadC pretreatment; P<0.05
Procedure: as §1
Chromatin is basically composed of histones and DNA. The histone status, that is, the methylation or acetylation status of histones is involved in the regulation of gene expression. Transcriptional activity is additionally dependent on the acetylation level of histones H3 and H4 in the promoter region. Moreover, TGFβ1-mediated transcription activation requires H3 acetylation (Ross S et al., EMBO J 25:4490-4502, 2006). Therefore, information about the transcriptional activity of the promoter region can be obtained by using the antibody against acetylated histone. […]

TTP promoter = TTP promoter luciferase reporter assay; details: SK-Hep1 cells; no AzadC
Procedure: To confirm that TTP expression is directly controlled by methylation of the #2 CpG site, the present inventors examined the transcriptional activity of the TTP promoter region in relation to the methylation status of the #2 CpG site using luciferase reporter assays.
Luciferase assays were performed using the Promega Luciferase Assay System (Promega, USA), according to the manufacturer's protocol. Luciferase reporter constructs were generated by amplifying TTP promoter regions from normal human genomic DNA (BioChain, USA) using the primer sets shown in Table 5 according to the method of Example <1-2>.
As a result, wild-type promoter (WT), a single base-substituted promoter (C→T), and TRR-deleted promoter (Del) were constructed. These promoters were cloned into the KpnI/BglII sites of pGL3-basic vector (Promega, USA). Ligated products were amplified in E. coli. After purification, the ligated products were transfected into SK-Hep1 cells by using LipofectAMINE Plus reagent (Invitrogen). Specifically, the luciferase reporter constructs (0.25 μg) were co-transfected with a control plasmid (0.05 μg) encoding renilla into 1×10^5 cells/well in 12-well plates. At that time, AzadC was treated 12 hours before the transfection. After treating with TGFβ1, luciferase activities were measured using a luminometer (Berthold Lumat LB9501, Bad Wildbad, Germany). […]

[3] = system: SK-Hep1 and PLC/PRF/5 cells; experiment: Cell growth by MTT assay and crystal violet staining; details: TGFβ1 96 hours
Procedure: (§2) MTT assay and crystal violet staining were performed with the cells. MTT (methylthiazoletetrazolium; Sigma-Aldrich) assay was performed by the informed technique (Mosmann T, J Immunol Methods 65:55-63, 1983) using μQuant Universal Microplate Spectrophotometer (Biotek Instruments, USA) at 570 nm. For crystal violet staining, the cells were fixed in 10% formaldehyde and stained in 10% crystal violet solution for 10 min at room temperature.

PLC/PRF/5 cells [4] = experiment: Cell cycle by FACS after TTP knock-down
Procedure: (§3) Lentiviral-based short hairpin RNAs (shRNAs) against TTP (Sigma-Aldrich; […] CTTTTT: SEQ. ID. NO. 40) or control shRNA targeting eGFP (Sigma-Aldrich) were transfected into PLC/PRF/5 cells and selected with 1 mg/l puromycin (Invitrogen). The selected PLC/PRF/5 transfectants were additionally treated with TGFβ1 for 0, 0.5, 1.0, 1.5, 2.0, and 2.5 hours. To investigate the half-life of c-Myc mRNA, actinomycin D was treated for 0, 15, 30, […], 60, and 75 minutes, and RT-PCR was performed with the cells.
FACS was performed with the cells treated in Example <7-4>.

[5] = system: RNAPII binding to the TTP locus; experiment: ChIP analysis of RNAPII binding to the TTP locus; details: PLC/PRF/5 cells; regardless of AzadC treatment
From the text: To establish the molecular mechanism of epigenetic regulation of TTP, the present inventors estimated the levels of different forms of phosphorylated RNAPII (RNA polymerase II) proteins bound to the TTP locus by ChIP (chromatin immunoprecipitation) analysis, i.e., unphosphorylated form (unP) as a measure of transcriptional initiation, and those phosphorylated at serine 5 (pS5) and serine 2 (pS2) of the carboxy-terminal repeat domain as a measure of promoter escape/capping and transcriptional elongation, respectively.
as §1

[6] = system: TTP expression in PLC/PRF/5 and SK-Hep1 cells; experiment: TGFβ1-mediated TTP induction with or without AzadC (RT-PCR)
Procedure: (§4) Total RNA was extracted from the HCC cell lines by using RNeasy mini kit (QIAGEN, USA). Distilled water was added to 1 μg of the total RNA and 1 μl of oligo-d(T) (Invitrogen, USA, 0.5 μg/μl) to make the total volume of the mixture 50 μl, followed by RT-PCR in AccuPower RT-premix (Bioneer, Korea). Before RT-PCR, cDNA was synthesized as follows: at 70° C. for 5 minutes, at 4° C. for 5 minutes, at 42° C. for 60 minutes, at 94° C. for 5 minutes, and at 4° C. for 5 minutes to produce cDNA. PCR was performed by using the obtained cDNA (3˜5 μl) or distilled water (negative control) as a template with the primer set as shown in Table 1 and PCR Master Mix (Promega, USA). PCR conditions were as follows: pre-denaturation at 95° C. for 5 minutes, denaturation at 95° C. for 45 seconds, annealing at 65° C. for […], polymerization at 72° C. for 45 seconds, 35 cycles from denaturation to polymerization, final extension at 72° C. for 5 minutes, and cooling at 4° C. The amplified product was quantified via standardization with β-actin.
TGFβ1 (R&D systems, USA) was treated thereto at the concentration of 5 μg/l for 0, 0.5, 1, 1.5, 3, 6, and 12 hours.

c-Myc mRNA = c-Myc mRNA level after TGFβ1 (RT-PCR)
Procedure: as §4
SK-Hep1 and PLC/PRF/5 cells which had been pre-treated or not treated with AzadC for 72 hours were treated additionally with TGFβ1 for 0, 0.5, 1.0, 1.5, 2.0, and 2.5 hours. Then RT-PCR was performed with the cells by using the primer sets of Table 10 in the same manner as described in Example <1-2>.

[7] = system: c-Myc mRNA in PLC/PRF/5 cells; experiment: c-Myc mRNA degradation and half-life after TTP knock-down (RT-PCR, actinomycin D)
Procedure: as §3

PLC/PRF/5 cells [8] = experiment: Cell growth after TTP knock-down (MTT, crystal violet staining)
Procedure: as §2, with “SK-Hep1 and PLC/PRF/5 cells were pre-treated or not treated with AzadC for 72 hours, to which TGFβ1 was additionally treated or not treated for 96 hours. MTT assay” for “MTT assay”
as §3
Western blotting was performed with the cells treated in Example <7-4> in the same manner as described in Example <7-2-1> to investigate the levels of c-Mycand p21^Cip1. MTT and crystal violet staining were also performed in the same manner as described in Example <7-2-2>.

[9] = PLC/PRF/5 cells (#2 CpG not methylated), TGFβ1 5 μg/l
[10] = PLC/PRF/5 cells, both before and after TGFβ1 treatment

Substance	binding of phospho-SMAD2/3 to TRR [1]	acetylation of histones H3 and H4 at TRR (region a) [2]	responsiveness of wild-type TTP promoter (WT) to TGFβ1, luciferase (TTP promoter)	cell growth [3]	size of the G2/M population following TGFβ1 treatment (PLC/PRF/5 cells [4]; PLC/PRF/5 control cells (control shRNA))	binding of RNAPII proteins to the TTP locus [5]	time of peak TTP expression after TGFβ1 treatment [6, 9]	time to increase of TTP expression after TGFβ1 treatment [6, 9]	induction of TTP expression ([6]; SK-Hep1 cells (high #2 CpG methylation), TGFβ1 alone 5 μg/l)	c-Myc level (c-Myc mRNA; PLC/PRF/5 cells, TGFβ1 0-2.5 hours)	c-Myc level decrease (c-Myc mRNA; SK-Hep1 cells, TGFβ1 without AzadC)	half-life of c-Myc mRNA ([7]; in the presence of actinomycin D, control 24 min)	c-Myc mRNA degradation after TGFβ1 treatment ([7]; shRNA-mediated knock-down of TTP)	size of the G2/M population following TGFβ1 treatment (PLC/PRF/5 cells [4]; PLC/PRF/5 TTP knock-down cells)	relative size of the G1 and sub G1 populations (PLC/PRF/5 cells [4]; [10])	relative size of the S phase population (PLC/PRF/5 cells [4]; [10])	growth inhibitory effect of TGFβ (PLC/PRF/5 cells [8])	growth rate (PLC/PRF/5 cells [8])
TGFβ1: Transforming growth factor beta 1, a multifunctional cytokine (R&D systems)	TGFβ1-dependent binding of phospho-SMAD2/3 to TRR was observed	significantly increased	not responsive	phenotypic growth inhibition	decreased significantly	significantly increased the binding of RNAPII proteins	1 h	≤ 30 min	not induced	rapidly decreased from 1 hour after TGFβ1 treatment	not in SK-Hep1 cells							
TTP knock-down: Lentiviral-based short hairpin RNA against TTP (Sigma-Aldrich), SEQ. ID. NO. 40, transfected into PLC/PRF/5 cells (CCGGGCTTCGCCAGAGCATCAGCTTCTCGAGAAGCTGATGCTCTGGCGAAGCTTTTT; expressed or natural sequence)												51 min	significantly retarded c-Myc mRNA degradation	remained unchanged	decreased	increased	blocking the growth inhibitory effect of TGFβ	elevated the growth rate
